According to US8124598B2 (priority 2006, dated 2012):
Entries after “also recorded” stand apart in the source; their conditions may differ.

Experiments:
[1] = test system: women with severe chronic PTSD; assay: Other medications of the Example 1 case patients (history); assay type: in vivo, human
Method: Case 2. patient two, a person with chronic severe PTSD (DSM-IV) associated with a history of severe childhood physical and sexual abuse, had remained highly symptomatic despite undergoing one and a half years of individual and group CBT and receiving paroxetine up to 30 mg daily, from other practitioners, for more than 4 years. […] They wished to be tapered off paroxetine because they had gained 40 lb, and after becoming obese, they also became hypertensive. Ms. […] Although their paroxetine dosage was tapered to 5 mg every other day, and lamotrigine 100 mg and topiramate 75 mg were administered daily, they remained highly symptomatic.
Case 4. patient one was in psychiatric treatment for over 25 years, including a long course of psychoanalysis and 2 years of CBT. They had been treated with adequate trials of 2 tricyclic antidepressants, 3 SSRIs, venlafaxine, 2 monoamine oxidase inhibitors, 3 anticonvulsants, many typical and atypical antipsychotics, lithium, bupropion, trazodone, and nefazodone.
[…] symptoms persisted in spite of psychotherapy for more than 15 years and numerous trials on medications.

[2] = test system: treatment-resistant patients; assay: Other treatments of the Example 3 patients (history); conditions: for response to other treatment: Example 3 patients 2, 3, 5, 6, 7, before 7-keto DHEA
Text: Patient 2 A married person was anxious all their life, hypertensive, fragile, had 4 years of depression due to stress and received 12 years of psychoanalysis.

[3] = test system: midlife major and minor depression or dysthymia; conditions: cited from earlier work
[4] = molecular target: T1, [^3H]dexamethasone-activated glucocorticoid receptor (Homo sapiens, UniProt P04150); conditions: brain cells; cited from earlier work
T1 construct: glucocorticoid receptor in brain cells; host or cells: brain cells
T1 sequence (P04150 1-777): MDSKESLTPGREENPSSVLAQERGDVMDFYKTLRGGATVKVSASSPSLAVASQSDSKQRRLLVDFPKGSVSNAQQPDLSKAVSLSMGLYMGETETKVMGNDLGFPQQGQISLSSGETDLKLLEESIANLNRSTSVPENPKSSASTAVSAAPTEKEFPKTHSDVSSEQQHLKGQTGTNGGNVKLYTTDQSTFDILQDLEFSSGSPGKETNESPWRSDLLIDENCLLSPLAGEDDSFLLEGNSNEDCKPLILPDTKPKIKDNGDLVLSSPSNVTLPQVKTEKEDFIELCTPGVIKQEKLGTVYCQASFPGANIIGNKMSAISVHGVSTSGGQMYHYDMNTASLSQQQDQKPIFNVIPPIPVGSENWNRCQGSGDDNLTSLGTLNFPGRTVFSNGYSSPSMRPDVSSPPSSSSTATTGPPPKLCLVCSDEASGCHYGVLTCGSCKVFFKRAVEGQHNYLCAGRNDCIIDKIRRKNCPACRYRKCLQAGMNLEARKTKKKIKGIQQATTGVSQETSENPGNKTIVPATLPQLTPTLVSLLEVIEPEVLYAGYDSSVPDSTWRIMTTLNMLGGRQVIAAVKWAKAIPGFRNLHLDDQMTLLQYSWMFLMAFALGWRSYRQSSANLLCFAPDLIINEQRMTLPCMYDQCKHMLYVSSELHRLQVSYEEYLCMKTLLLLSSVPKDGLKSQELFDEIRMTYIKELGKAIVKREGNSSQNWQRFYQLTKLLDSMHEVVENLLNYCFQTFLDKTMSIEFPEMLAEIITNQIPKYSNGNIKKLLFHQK

[5] = Case 4, lorazepam 1 mg p.r.n., aripiprazole 2.5 mg daily, pemoline 75 mg daily, phentermine 30 mg daily

CN[C@H]1CC[C@@H](c2ccc(Cl)c(Cl)c2)c2ccccc21 [sertraline]
benefit ([1]; Case 5, sertraline for 6 years): minimal benefit | adverse effect of failed trial ([1]; human, in vivo): agitated and irritable | response to other treatment [2]: partially improved

C[C@H](N)Cc1ccccc1 [dextroamphetamine]
adverse effect ([1]; Case 4): made their anxiety worse

C[C@]12CC[C@H](O)CC1=CC[C@@H]1[C@@H]2CC[C@]2(C)C(=O)CC[C@@H]12 [DHEA, Dehydroepiandrosterone]
induced mania ([3]; case reports): induced mania has been reported | effectiveness in depression ([3]; one open series and 3 placebo-controlled, double-blind, randomized trials, midlife major and minor depression or dysthymia): supported the effectiveness

CN(C)CCC=C1c2ccccc2COc2ccccc21 [Doxepin]
response to other treatment [2]: partially responded | tolerability of other treatment ([2]; human, in vivo): intolerant of the side effects

O=C1CCc2ccc(OCCCCN3CCN(c4cccc(Cl)c4Cl)CC3)cc2N1 [aripiprazole]
benefit [1, 5]: some relief from anxiety, depression, and agitation | weight gain ([1]; human, in vivo): 30 lb | response to other treatment [2]: partially responded

CNCCC(Oc1ccc(C(F)(F)F)cc1)c1ccccc1 (centres unmarked) [fluoxetine]
adverse effect of failed trial ([1]; human, in vivo): agitated and irritable

C[S+](CC[C@H](N)C(=O)O)C[C@H]1O[C@@H](n2cnc3c(N)ncnc32)[C@H](O)[C@@H]1O (some centres unmarked) [SAMe, S-adenosylmethionine]
response to other treatment [2]: partially helped; also recorded: made the Doxepin work better

Fc1ccc([C@@H]2CCNC[C@H]2COc2ccc3c(c2)OCO3)cc1 [paroxetine]
benefit ([1]; Case 2, patient's own judgement): not helping their chronic severe anxiety and irritability

C[C@]12CC[C@H](O)CC1=C[C@@H](O)[C@@H]1[C@@H]2CC[C@]2(C)C(=O)CC[C@@H]12 [7 alpha-hydroxy DHEA]
preventing the nuclear uptake of [^3H]dexamethasone-activated glucocorticoid receptor [4]: efficient

NC1=NC(=O)C(c2ccccc2)O1 (centres unmarked) [Pemoline]
benefit [1, 5]: enough energy to function

COC(=O)C(c1ccccc1)C1CCCCN1 (centres unmarked) [Methylphenidate]
adverse effect ([1]; Case 4): made their anxiety worse

COc1ccc(C(CN(C)C)C2(O)CCCCC2)cc1 (centres unmarked) [venlafaxine]
benefit ([1]; Case 5, sertraline for 6 years): slightly helpful | adverse effect ([1]; Case 5, venlafaxine at 300 mg daily): overly activated | response to other treatment [2]: partially responded | tolerability of other treatment ([2]; Example 3 patients 6 and 7): did not like the side effects

Nc1nnc(-c2cccc(Cl)c2Cl)c(N)n1 [lamotrigine]
response to other treatment [2]: partially improved

CC(C)(N)Cc1ccccc1 [phentermine]
benefit [1, 5]: enough energy to function

CN1CCN2c3ncccc3Cc3ccccc3C2C1 (centres unmarked) [Remeron]
response to other treatment [2]: partially helped

O=C1Nc2ccc(Cl)cc2C(c2ccccc2Cl)=NC1O (centres unmarked) [lorazepam]
benefit [1, 5]: some relief from anxiety, depression, and agitation

C[C@]12CC[C@H](O)CC1=C[C@H](O)[C@@H]1[C@@H]2CC[C@]2(C)C(=O)CC[C@@H]12 [7 beta-hydroxy DHEA]
preventing the nuclear uptake of [^3H]dexamethasone-activated glucocorticoid receptor [4]: efficient
